The subject of the assay is Pseudomonas aeruginosa clinical isolate PAX11045. Briefly: Murine pneumonia model, compound 1 in combination with ertapenem (Example 1). It is filed as in vivo. As for the experimental part:
The efficacy and ED50 of the compound of formula (I) (“compound 1”) in combination with ertapenem was determined against Pseudomonas aeruginosa clinical isolate PAX11045 in a pneumonia model in mice. Colony counts in lung were determined at 20 hours post treatment.
Fresh overnight colonies of PAX11045 from a 5% Horse Blood Agar plate were suspended in 0.9% sterile saline to approximately 10^8 CFU/ml and further diluted to approximately 5×10^7 CFU/ml. Female mice (DBA/2, outbred, 18-22 g, Charles River) were anesthetized with 0.1 ml of Zoletil and inoculated via the nose with a pipette with 0.05 ml of the bacteria suspension containing approximately 10^6 CFU. 4 hours after inoculation, the mice were treated orally with 45 μl neurophen (20 mg ibuprofen/ml corresponding to approximately 30 mg/kg) as pain relief.
1 g of ertapenem (Invanz™, MSD Denmark Aps) was dissolved in 10 ml 0.9% sterile saline to a concentration of 100 mg/ml and further diluted with saline to 5 mg/ml. The mice were treated subcutaneously with 0.2 ml in the neck region with a single dose at 3 hours post infection corresponding to 50 mg/kg on the basis of a mean animal weight of 20 g.
The mice were treated subcutaneously with 0.2 ml in the neck region with a single dose at 4 hours post infection with a dose calculation based on a mean animal weight of 20 g.
Colony counts were determined post inoculation at 4 hours (untreated mice) and 24 hours (treated and vehicle-only treated mice). Immediately after the mice were sacrificed, the lungs were collected and frozen at −20° C. After thawing, the organs were homogenized in 1 ml 0.9% saline. Each sample was then 10 fold diluted in saline and 20 μl spots were applied on blood agar plates. All agar plates were incubated 18-24 hours at 35° C. in ambient air.
The CFU/ml in the inoculum was determined to 7.65 log10 CFU/ml corresponding to 6.35 log10 CFU/mouse.
At 4 hours after infection the mean log10 CFU/lung was 5.14 and the CFU level remained at a similar level after 24 hours in the vehicle-only group.

Setting [1] is: in presence of 50 mg/kg ertapenem, murine lungs.

Square brackets hold non-standard residues; d marks the D form. dDab = NCC[C@@H](N)C(=O)O; Orn = NCCC[C@H](N)C(=O)O; Dab = NCC[C@H](N)C(=O)O

What is called ED50 is the dose that gives a 50% effect, or the effect in half of the subjects. Consider “cyclo(TWI[Dab][Orn][dDab][Dab]W[Dab][Dab]AS[dP]P) [compound 1]”, for which, where the note is “2.75 mg/kg alone, lung, p<0.001”, the “effect on bacterial loads” value is recorded as “significant effect on reducing the bacterial loads”. Moreover, the “CFU levels compared to vehicle treatment” value (combination of compound 1 (dose series) and ertapenem 50 mg/kg, lung, p<0.01-p<0.001) was “concentration dependent significant reduction of the CFU levels”. In addition, the Top level (compound 1 s.c. in presence of 50 mg/kg ertapenem (s.c., 3 h post infection), murine lungs) was −0.34 log10 CFU/ml. Further, under setting [1], the “1 log killing dose” value turned out to be 1.14 mg/kg, the “2 log killing dose” value is 1.48 mg/kg, the Bottom level is listed as −2.32 log10 CFU/ml and the Emax came out at 1.98 log10 CFU/ml. The Static dose under setting [1] turned out to be 0.63 mg/kg. Besides, the ED50 (in presence of fixed dose of 50 mg/kg ertapenem, murine lungs) turned out to be 1.24 mg/kg.

These data come from patent US9814754B2, “Combinations with a backbone-cyclized peptide” (POLYPHOR AG, priority 2012, dated 2017).
